Measured values: patent publication US20250179088A9 (ZYMEWORKS BC INC., priority 2020, published 2025)

Experiments:
PBMCs = assay: PBMC assay, IL-6 release (HTRF); type: cell-based; conditions: PBMCs from healthy donors, overnight, IL-6 induction by HTRF, average of quadruplicate
Procedure: Whole peripheral blood was obtained from healthy donors. PBMCs were isolated from peripheral blood by density gradient centrifugation. […] The plasma layer containing PBMCs was poured into a new tube and washed twice. Isolated PBMCs were either used fresh or thawed from previously frozen. 1×10^5 PBMCs were cultured with titrating concentrations of compounds of Formula I overnight followed by assaying for cytokines by homogeneous time resolved fluorescence (HTRF).

TLR7 = target: T1, TLR7 (Homo sapiens, UniProt Q9NYK1); assay: Reporter gene assay, HEK-Blue TLR7 reporter cells (SEAP)
T1 sequence (Q9NYK1 27-1049): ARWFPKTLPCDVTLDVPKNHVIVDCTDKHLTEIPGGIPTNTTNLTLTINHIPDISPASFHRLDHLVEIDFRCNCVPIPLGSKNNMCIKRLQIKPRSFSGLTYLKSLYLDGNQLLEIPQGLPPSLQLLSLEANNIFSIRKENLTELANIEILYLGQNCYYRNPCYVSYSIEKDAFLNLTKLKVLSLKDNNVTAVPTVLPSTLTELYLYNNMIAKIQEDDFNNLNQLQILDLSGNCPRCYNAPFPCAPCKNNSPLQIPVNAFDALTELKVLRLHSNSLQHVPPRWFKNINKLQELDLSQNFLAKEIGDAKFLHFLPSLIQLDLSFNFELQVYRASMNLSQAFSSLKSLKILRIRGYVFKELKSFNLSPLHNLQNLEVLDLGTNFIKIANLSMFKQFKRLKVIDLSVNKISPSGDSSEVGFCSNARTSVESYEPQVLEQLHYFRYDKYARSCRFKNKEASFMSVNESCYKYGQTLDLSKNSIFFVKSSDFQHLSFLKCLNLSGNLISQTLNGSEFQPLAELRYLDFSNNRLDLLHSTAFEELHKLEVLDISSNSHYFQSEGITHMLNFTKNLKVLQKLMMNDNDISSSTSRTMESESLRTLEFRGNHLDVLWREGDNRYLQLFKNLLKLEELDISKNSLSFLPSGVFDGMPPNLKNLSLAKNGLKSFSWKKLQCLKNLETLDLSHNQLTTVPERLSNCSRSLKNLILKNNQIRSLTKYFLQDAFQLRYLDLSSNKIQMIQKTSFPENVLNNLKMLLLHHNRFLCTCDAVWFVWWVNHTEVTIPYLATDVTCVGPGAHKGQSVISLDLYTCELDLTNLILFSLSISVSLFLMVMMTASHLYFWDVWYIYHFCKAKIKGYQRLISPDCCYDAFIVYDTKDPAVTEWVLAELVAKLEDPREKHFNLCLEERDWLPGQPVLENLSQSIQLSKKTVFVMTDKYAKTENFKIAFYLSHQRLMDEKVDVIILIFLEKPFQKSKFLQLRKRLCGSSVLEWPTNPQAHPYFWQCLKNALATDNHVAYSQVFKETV
Procedure: (§1) 3×10^4 HEK-Blue™ TLR7 or 3×10^4 TLR8 reporter cells (InvivoGen, San Diego, CA) were treated with titrated (4-fold) amounts of test compound. […] Cells were incubated overnight at 37° C. and 5% CO2, then absorbance (620 and 655 nm) was read on a Synergy™ H1 microplate reader.

TLR8 = target: T2, TLR8 (Homo sapiens, UniProt Q9NR97); assay: Reporter gene assay, HEK-Blue TLR8 reporter cells (SEAP)
T2 sequence (Q9NR97 27-1041): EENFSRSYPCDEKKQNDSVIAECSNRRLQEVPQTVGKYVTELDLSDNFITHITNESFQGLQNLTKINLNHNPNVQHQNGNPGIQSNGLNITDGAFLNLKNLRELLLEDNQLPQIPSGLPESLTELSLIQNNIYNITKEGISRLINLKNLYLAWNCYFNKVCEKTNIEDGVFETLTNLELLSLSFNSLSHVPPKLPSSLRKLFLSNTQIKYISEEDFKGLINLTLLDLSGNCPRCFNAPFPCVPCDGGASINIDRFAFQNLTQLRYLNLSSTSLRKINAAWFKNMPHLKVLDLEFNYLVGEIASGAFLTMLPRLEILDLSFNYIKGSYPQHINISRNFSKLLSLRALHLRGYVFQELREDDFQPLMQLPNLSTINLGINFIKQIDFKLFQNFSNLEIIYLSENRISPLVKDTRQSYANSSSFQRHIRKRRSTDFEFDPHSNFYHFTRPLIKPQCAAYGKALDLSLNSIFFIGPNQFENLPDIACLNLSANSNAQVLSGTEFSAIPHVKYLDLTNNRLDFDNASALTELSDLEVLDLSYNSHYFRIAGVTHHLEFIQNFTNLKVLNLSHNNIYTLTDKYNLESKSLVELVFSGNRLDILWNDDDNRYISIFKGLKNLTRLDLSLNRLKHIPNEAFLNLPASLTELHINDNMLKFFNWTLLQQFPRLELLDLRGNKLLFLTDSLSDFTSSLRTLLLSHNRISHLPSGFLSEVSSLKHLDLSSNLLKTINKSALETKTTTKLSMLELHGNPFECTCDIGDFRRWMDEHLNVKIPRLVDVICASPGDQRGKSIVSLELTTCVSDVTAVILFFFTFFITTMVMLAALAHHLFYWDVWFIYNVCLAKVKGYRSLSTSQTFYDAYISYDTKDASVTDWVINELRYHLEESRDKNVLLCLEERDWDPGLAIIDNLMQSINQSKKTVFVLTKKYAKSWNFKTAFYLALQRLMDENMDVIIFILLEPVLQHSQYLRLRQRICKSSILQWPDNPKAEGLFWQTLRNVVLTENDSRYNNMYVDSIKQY
Procedure: as §1

| Compound | EC50 (TLR7) | EC50 (TLR8) | EC50 (PBMCs) |
| --- | --- | --- | --- |
| CCCCc1nc2c(N)nc3ccsc3c2n1CCCCCNCc1cc[nH]c1 [Compound 183, 1-(5-(((1H-pyrrol-3-yl)methyl)amino)pentyl)-2-butyl-1H-imidazo[4,5-d]thieno[3,2-b]pyridin-4-amine] | 34 nM | > 1000 nM | > 1000 nM |
| CCCCc1nc2c(N)nc3ccsc3c2n1Cc1cccc(CNCc2cc[nH]c2)c1 [Compound 197, 1-(3-((((1H-pyrrol-3-yl)methyl)amino)methyl)benzyl)-2-butyl-1H-imidazo[4,5-d]thieno [3,2-b]pyridin-4-amine] | 63 nM | 490 nM | 290 nM |
| CCCCc1nc2c(N)nc3ccsc3c2n1Cc1cccc(CN2CCC(c3ccncc3)CC2)c1 [Compound 198, 2-butyl-1-(3-((4-(pyridin-4-yl)piperidin-1-yl)methyl)benzyl)-1H-imidazo[4,5-d]thieno [3,2-b]pyridin-4-amine] | 220 nM | > 1000 nM | 280 nM |
| CCCCc1nc2c(N)nc3ccsc3c2n1Cc1cccc(CN(CC)CC)c1 [Compound 199, 2-butyl-1-(3-((diethylamino)methyl)benzyl)-1H-imidazo[4,5-d]thieno[3,2-b]pyridin-4-amine] | 130 nM | 430 nM | 330 nM |
| CCCCc1nc2c(N)nc3ccsc3c2n1Cc1cccc(CNCC(C)(C)N2CCOCC2)c1 [Compound 202, 2-butyl-1-(3-(((2-methyl-2-morpholinopropyl)amino)methyl)benzyl)-1H-imidazo[4,5-d]thieno[3,2-b]pyridin-4-amine] | 330 nM | 950 nM | 750 nM |
| CCCCc1nc2c(N)nc3ccsc3c2n1Cc1cccc(CNCCCCCO)c1 [Compound 203, 5-((3-((4-amino-2-butyl-1H-imidazo[4,5-d]thieno[3,2-b]pyridin-1-yl)methyl)benzyl)amino)pentan-1-ol] | 290 nM | 120 nM | 160 nM |
| CCCCc1nc2c(N)nc3ccsc3c2n1Cc1cccc(CNCc2ccc(CO)cc2)c1 [Compound 204, (4-(((3-((4-amino-2-butyl-1H-imidazo[4,5-d]thieno[3,2-b]pyridin-1-yl)methyl)benzyl)amino)methyl)phenyl)methanol] | 68 nM | 310 nM | 200 nM |
| CCCCc1nc2c(N)nc3ccsc3c2n1Cc1cccc(CNCC(C)(C)O)c1 [Compound 205, 1-((3-((4-amino-2-butyl-1H-imidazo[4,5-d]thieno[3,2-b]pyridin-1-yl)methyl)benzyl)amino)-2-methylpropan-2-ol] | 110 nM | 190 nM | 160 nM |
| CCCCc1nc2c(N)nc3ccsc3c2n1Cc1cccc(CNN)c1 [Compound 206, 2-butyl-1-(3-(hydrazineylmethyl)benzyl)-1H-imidazo[4,5-d]thieno[3,2-b]pyridin-4-amine] | 280 nM | > 1000 nM | > 1000 nM |
| CCCCc1nc2c(N)nc3ccsc3c2n1Cc1ccccc1CN [Compound 216, 1-(2-(aminomethyl)benzyl)-2-butyl-1H-imidazo[4,5-d]thieno[3,2-b]pyridin-4-amine] | > 1000 nM | > 1000 nM | > 1000 nM |
| CCCCc1nc2c(N)nc3ccsc3c2n1Cc1ccccc1CN1CCN(C(=O)OC(C)(C)C)CC1 [Compound 217, tert-butyl 4-(2-((4-amino-2-butyl-1H-imidazo[4,5-d]thieno[3,2-b]pyridin-1-yl)methyl)benzyl)piperazine-1-carboxylate] | > 1000 nM | > 1000 nM | > 1000 nM |
| CCCCc1nc2c(N)nc3ccsc3c2n1Cc1ccccc1CNCc1cc[nH]c1 [Compound 220, 1-(2-((((1H-pyrrol-3-yl)methyl)amino)methyl)benzyl)-2-butyl-1H-imidazo[4,5-d]thieno [3,2-b]pyridin-4-amine] | > 1000 nM | > 1000 nM | > 1000 nM |
| CCCCc1nc2c(N)nc3ccsc3c2n1Cc1ccccc1CN(CC)CC [Compound 221, 2-butyl-1-(2-((diethylamino)methyl)benzyl)-1H-imidazo[4,5-d]thieno[3,2-b]pyridin-4-amine] | > 1000 nM | > 1000 nM | > 1000 nM |

Now from value to compound, other results behind:

| EC50 (TLR7) | EC50 (TLR8) | Compound | EC50 (PBMCs) |
| --- | --- | --- | --- |
| > 1000 nM | > 1000 nM | CCCCc1nc2c(N)nc3ccsc3c2n1Cc1cccc(CN2CCN(C(=O)OC(C)(C)C)CC2)c1 [Compound 196, tert-butyl 4-(3-((4-amino-2-butyl-1H-imidazo[4,5-d]thieno[3,2-b]pyridin-1-yl)methyl)benzyl)piperazine-1-carboxylate] | > 1000 nM |
| 550 nM | > 1000 nM | CCCCc1nc2c(N)nc3ccsc3c2n1Cc1cccc(CN2CCN(CCN3CCOCC3)CC2)c1 [Compound 200, 2-butyl-1-(3-((4-(2-morpholinoethyl)piperazin-1-yl)methyl)benzyl)-1H-imidazo[4,5-d]thieno[3,2-b]pyridin-4-amine] | > 1000 nM |
| 480 nM | > 1000 nM | CCCCc1nc2c(N)nc3ccsc3c2n1Cc1cccc(CO)c1 [Compound 207, (3-((4-amino-2-butyl-1H-imidazo[4,5-d]thieno[3,2-b]pyridin-1-yl)methyl)phenyl)methanol] | > 1000 nM |
| 63 nM | > 1000 nM | CCCCc1nc2c(N)nc3ccsc3c2n1Cc1cccc(CN2CCNCC2)c1 [Compound 214, 2-butyl-1-(3-(piperazin-1-ylmethyl)benzyl)-1H-imidazo[4,5-d]thieno[3,2-b]pyridin-4-amine] | 750 nM |
| > 1000 nM | > 1000 nM | CCCCc1nc2c(N)nc3ccsc3c2n1Cc1ccccc1CNCCCN1CCN(CCCN)CC1 [Compound 215, 1-(2-(((3-(4-(3-aminopropyl)piperazin-1-yl)propyl)amino)methyl)benzyl)-2-butyl-1H-imidazo[4,5-d]thieno[3,2-b]pyridin-4-amine] | > 1000 nM |
| > 1000 nM | > 1000 nM | CCCCc1nc2c(N)nc3ccsc3c2n1Cc1ccccc1CN1CCNCC1 [Compound 218, 2-butyl-1-(2-(piperazin-1-ylmethyl)benzyl)-1H-imidazo[4,5-d]thieno[3,2-b]pyridin-4-amine] | > 1000 nM |
| > 1000 nM | > 1000 nM | CCCCc1nc2c(N)nc3ccsc3c2n1Cc1ccccc1CN1CCC(c2ccncc2)CC1 [Compound 219, 2-butyl-1-(2-((4-(pyridin-4-yl)piperidin-1-yl)methyl)benzyl)-1H-imidazo[4,5-d]thieno[3,2-b]pyridin-4-amine] | > 1000 nM |
